The values below come from US20240270699A1, “COMPOUNDS HAVING N-ARYLPYRIMIDIN-2-AMINE DERIVATIVES AS THERAPEUTIC AGENTS” (Lomond Therapeutics, Inc., priority 2021, published 2024).

The test system of test [1] is Jurkat cells. Description: IL-2 release Jurkat assay (anti-CD3/anti-CD28 stimulation, IL-2 ELISA). The format is cell-based, human. To be noted: activation with 400 ng/mL aCD3 + 400 ng/mL aCD28, 24 hours. (In an ELISA, binding on a coated surface is turned into a signal by an enzyme label.)
Test [2] deals with T1, recombinant HPK1 protein (Homo sapiens, UniProt Q92918).
T1 construct: purchased Promega V6398
T1 sequence (Q92918 1-346 limits assumed): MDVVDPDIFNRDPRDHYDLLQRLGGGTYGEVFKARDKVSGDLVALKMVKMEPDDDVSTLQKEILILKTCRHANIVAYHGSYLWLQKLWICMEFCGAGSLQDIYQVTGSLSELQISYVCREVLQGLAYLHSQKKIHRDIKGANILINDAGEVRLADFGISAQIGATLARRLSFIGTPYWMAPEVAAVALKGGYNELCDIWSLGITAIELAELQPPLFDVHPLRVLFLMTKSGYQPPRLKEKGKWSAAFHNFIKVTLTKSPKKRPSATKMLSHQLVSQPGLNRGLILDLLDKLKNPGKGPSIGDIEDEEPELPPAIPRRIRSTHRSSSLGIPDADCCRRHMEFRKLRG
Briefly: Primary assay of HPK1 enzymatic activity inhibition (ADP-Glo luminescence). In kind it is biochemical. The note with it: recombinant HPK1, MBP substrate, 1 hour at room temperature. (In general: ADP-Glo turns the ADP formed in a reaction into a luminescent signal.)

Structures are written as SMILES.

A word on the IC50: it is the midpoint of a concentration-inhibition curve. For the compound `CCOC(=O)c1cnc(Nc2ccc3c(c2)CCN(C)C3=O)nc1N[C@H](CO)c1ccccc1` [Compound 122, Ethyl 4-{[(1S)-2-hydroxy-1-phenylethyl]amino}-2-[(2-methyl-1-oxo-1,2,3,4-tetrahydroisoquinolin-6-yl)amino]pyrimidine-5-carboxylate], the “IL-2, pg/mL stimulated” value in test [1] (Table B: Jurkat, 1.5 μM of tested compounds) is recorded as “C (25.0 pg/mL≤IL-2<35.0 pg/mL)”. The IC50 in test [2] was under 50 nM.
Regarding `CNC(=O)c1cnc(Nc2ccc(C(F)(F)F)c(Cl)c2)nc1N[C@H](CO)c1ccccc1` [Compound 132, 2-{[3-chloro-4-(trifluoromethyl)phenyl]amino}-4-{[(1S)-2-hydroxy-1-phenylethyl]amino}-N-methylpyrimidine-5-carboxamide], the IC50 in test [2] was at least 500 nM.
Still for that read-out and setting: the value for `N#Cc1cnc(Nc2ccc3c(c2)CCNC3=O)nc1N[C@H](CO)c1ccccc1` [Compound 567, 4-[[(1S)-2-hydroxy-1-phenyl-ethyl]amino]-2-[(1-oxo-3,4-dihydro-2H-isoquinolin-6-yl)amino]pyrimidine-5-carbonitrile] was at least 500 nM.
As for `C=Cc1noc(-c2cnc(Nc3ccc4c(c3)CCN(COCC[Si](C)(C)C)C4=O)nc2N[C@H](CO)c2ccccc2)n1` [Compound 580, 6-[[4-[[(1S)-2-hydroxy-1-phenyl-ethyl]amino]-5-(3-vinyl-1,2,4-oxadiazol-5-yl)pyrimidin-2-yl]amino]-2-(2-trimethylsilylethoxymethyl)-3,4-dihydroisoquinolin-1-one], the IC50 in test [2] is under 50 nM.
Take `CCOC(=O)c1cnc(Nc2ccc(C(F)(F)F)c(Cl)c2)nc1N[C@H](CO)c1ccccc1` [Compound 248, Ethyl 2-{[3-chloro-4-(trifluoromethyl)phenyl]amino}-4-{[(1S)-2-hydroxy-1-phenylethyl]amino}pyrimidine-5-carboxylate]: in test [2], the IC50 was at least 500 nM.
As for `Cc1noc(-c2cnc(Nc3ccc4c(c3)CCN(COC(=O)C(C)(C)C)C4=O)nc2N[C@H](CO)c2ccccc2)n1` [Compound 581, [6-[[4-[[(1S)-2-hydroxy-1-phenyl-ethyl]amino]-5-(3-methyl-1,2,4-oxadiazol-5-l)pyrimidin-2-yl]amino]-1-oxo-3,4-dihydroisoquinolin-2-yl]methyl 2,2-dimethylpropanoate], the “IL-2, pg/mL stimulated” value in test [1] (Table G: Jurkat, 1.0 μM of tested compounds) is “D (150 pg/mL≤IL-2)”.
On to `CCOC(=O)c1cnc(Nc2ccc3c(c2)C(=O)NC(C(C)C)C(=O)N3)nc1N[C@H](CO)c1ccccc1` (stereo partly drawn) [Compound 467, Ethyl 4-[[(1S)-2-hydroxy-1-phenyl-ethyl]amino]-2-[(3-isopropyl-2,5-dioxo-3,4-dihydro-1H-1,4-benzodiazepin-7-yl)amino]pyrimidine-5-carboxylate], for which the IC50 in test [2] is at least 500 nM.
With `O=C(NC1CCCC1)c1cnc(Nc2ccc(C(F)(F)F)c(Cl)c2)nc1N[C@H](CO)c1ccccc1` [Compound 472, 2-{[3-chloro-4-(trifluoromethyl)phenyl]amino}-N-cyclopentyl-4-{[(1S)-2-hydroxy-1-phenylethyl]amino}pyrimidine-5-carboxamide], in test [2], the IC50 is at least 500 nM.
For the compound `CS(=O)(=O)c1ccc(Nc2ncc(C#N)c(N[C@H](CO)c3ccccc3)n2)cc1F` [Compound 2, 2-{[3-fluoro-4-(methylsulfonyl)phenyl]amino}-4-{[(1S)-2-hydroxy-1-phenylethyl]amino}pyrimidine-5-carbonitrile], in test [2], the half-maximal inhibitory concentration (IC50) was at least 500 nM.
With `CCOC(=O)c1cnc(Nc2ccc(S(C)(=O)=O)c(F)c2)nc1N[C@H]1c2ccccc2C[C@H]1O` [Compound 298, ethyl 2-(3-fluoro-4-methylsulfonyl-anilino)-4-[[(1S,2R)-2-hydroxyindan-1-yl]amino]pyrimidine-5-carboxylate], in test [2], the IC50 is at least 500 nM.
In the case of `CCOC(=O)c1cnc(Nc2ccc3c(c2)CNC3=O)nc1N[C@H](CO)c1ccccc1` [Compound 565, ethyl 4-[[(1S)-2-hydroxy-1-phenyl-ethyl]amino]-2-[(1-oxoisoindolin-5-yl)amino]pyrimidine-5-carboxylate], the IC50 in test [2] is under 50 nM.
Same read-out and setting: the value for `CS(=O)(=O)c1ccc(Nc2ncc(C(=O)O)c(N[C@H](CO)c3ccccc3)n2)cc1F` [Compound 42, 2-{[3-fluoro-4-(methylsulfonyl)phenyl]amino}-4-{[(1S)-2-hydroxy-1-phenylethyl]amino}pyrimidine-5-carboxylic Acid] was at least 500 nM.
Take `CN(CCO)C(=O)c1cnc(Nc2ccc(S(C)(=O)=O)c(F)c2)nc1N[C@H](CO)c1ccccc1` [Compound 402, 2-(3-fluoro-4-methylsulfonyl-anilino)-N-(2-hydroxyethyl)-4-[[(1S)-2-hydroxy-1-phenyl-ethyl]amino]-N-methyl-pyrimidine-5-carboxamide]: in test [2], the IC50 was at least 500 nM.
With `CCOC(=O)c1cnc(Nc2ccc3c(c2)CCN(C(C)C)C3=O)nc1N[C@H](CO)c1ccccc1` [Compound 316, Ethyl 4-[[(1S)-2-hydroxy-1-phenyl-ethyl]amino]-2-[(2-isopropyl-1-oxo-3,4-dihydroisoquinolin-6-yl)amino]pyrimidine-5-carboxylate], in test [2], the IC50 is at least 500 nM.
On to `CCOC(=O)c1cnc(Nc2ccc(C(=O)N(C)C)c(OC)c2)nc1N[C@H](CO)c1ccccc1` [Compound 247, Ethyl 2-[4-(dimethylcarbamoyl)-3-methoxy-anilino]-4-[[(1S)-2-hydroxy-1-phenyl-ethyl]amino]pyrimidine-5-carboxylate], for which, in test [2], the IC50 was in the range of 200 to 500 nM.
On the same count and under the same terms, the value for `CCOC(=O)c1cnc(Nc2ccc(C(=O)O)c(OC)c2)nc1N[C@H](CO)c1ccccc1` [Compound 62, 4-[[5-ethoxycarbonyl-4-[[(1S)-2-hydroxy-1-phenyl-ethyl]amino]pyrimidin-2-yl]amino]-2-methoxy-benzoic acid] was 200 to 500 nM.
In the case of `CCOC(=O)c1cnc(Nc2ccc(S(C)(=O)=O)c(F)c2)nc1N[C@H](C)c1ccccc1` [Compound 97, ethyl 2-(3-fluoro-4-methylsulfonyl-anilino)-4-[[(1R)-1-phenylethyl]amino]pyrimidine-5-carboxylate], the IC50 in test [2] was at least 500 nM.
With `CS(=O)(=O)c1ccc(Nc2ncc(C(=O)N3CCCC3)c(N[C@H](CO)c3ccccc3)n2)cc1F` [Compound 371, [2-(3-fluoro-4-methylsulfonyl-anilino)-4-[[(1S)-2-hydroxy-1-phenyl-ethyl]amino]pyrimidin-5-yl]-pyrrolidin-1-yl-methanone], the IC50 in test [2] was at least 500 nM.
In the case of `CCOC(=O)c1cnc(Nc2ccc3c(c2)NC(=O)CCC3)nc1N[C@H](CO)c1ccccc1` [Compound 574, ethyl 4-[[(1S)-2-hydroxy-1-phenyl-ethyl]amino]-2-[(2-oxo-1,3,4,5-tetrahydro-1-benzazepin-8-yl)amino]pyimidine-5-carboxylate], the IC50 in test [2] is at least 500 nM.
As to `CCOC(=O)c1cnc(N(c2ccc3c(c2)CCCNC3=O)c2ncc(C(=O)OCC)c(N[C@H](CO)c3ccccc3)n2)nc1N[C@H](CO)c1ccccc1` [Compound 576, ethyl 2-[[5-ethoxycarbonyl-4-[[(1S)-2-hydroxy-1-phenyl-ethyl]amino]pyrimidin-2-yl]-(1-oxo-2,3,4,5-tetrahydro-2-benzazepin-7-yl)amino]-4-[[(1S)-2-hydroxy-1-phenyl-ethyl]amino]pyrimidin-5-carboxylate], the IC50 in test [2] fell in the range of 50 to 200 nM.
On to `Cc1noc(-c2cnc(Nc3ccc4c(c3)CCN(C)C4=O)nc2N[C@H](CO)c2ccccc2)n1` [Compound 183, 6-[[4-[[(1S)-2-hydroxy-1-phenyl-ethyl]amino]-5-(3-methyl-1,2,4-oxadiazol-5-yl)pyrimidin-2-yl]amino]-2-methyl-3,4-dihydroisoquinolin-1-one], for which the IC50 in test [2] is under 50 nM.
On the same count and under the same terms, under `CN1CCc2cc(Nc3ncc(-c4nnco4)c(N[C@H](CO)c4ccccc4)n3)ccc2C1=O` [Compound 89, 6-[[4-[[(1S)-2-hydroxy-1-phenyl-ethyl]amino]-5-(1,3,4-oxadiazol-2-yl)pyrimidin-2-yl]amino]-2-methyl-3,4-dihydroisoquinolin-1-one] stands under 50 nM; under `CCOC(=O)c1cnc(Nc2ccc(S(C)(=O)=O)c(F)c2)nc1N1Cc2ccccc2CC1CO` (stereo not shown) [Compound 388, ethyl 2-(3-fluoro-4-methylsulfonyl-anilino)-4-[3-(hydroxymethyl)-3,4-dihydro-1H-isoquinolin-2-yl]pyrimidine-5-carboxylate], at least 500 nM; under `CCOC(=O)c1cnc(Nc2ccc(C(=O)NC)c(C)c2)nc1N[C@H](CO)c1ccccc1` [Compound 48, Ethyl 4-[[(1S)-2-hydroxy-1-phenyl-ethyl]amino]-2-[3-methyl-4-(methylcarbamoyl)anilino]pyrimidine-5-carboxylate], at least 500 nM.
With `O=C(NC1CCCC1)c1cnc(Nc2ccc(F)c(-c3ccccc3)c2)nc1N[C@H](CO)c1ccccc1` [Compound 440, N-cyclopentyl-2-[(6-fluorobiphenyl-3-yl)amino]-4-{[(1S)-2-hydroxy-1-phenylethyl]amino}pyrimidine-5-carboxamide], the IC50 in test [2] was at least 500 nM.
`CS(=O)(=O)c1ccc(Nc2ncc3[nH]c(=O)n([C@H](CO)c4ccccc4)c3n2)cc1F` [Compound 577, 2-(3-fluoro-4-methylsulfonyl-anilino)-9-[(1S)-2-hydroxy-1-phenyl-ethyl]-7H-purin-8-one]: in test [2], the IC50 was at least 500 nM.
`CCOC(=O)c1cnc(Nc2ccc(S(C)(=O)=O)cc2OC)nc1N[C@H](CO)c1ccccc1` [Compound 299, Ethyl 4-{[(1S)-2-hydroxy-1-phenylethyl]amino}-2-{[2-methoxy-4-(methylsulfonyl)phenyl]amino}pyrimidine-5-carboxylate]: in test [2], the IC50 was at least 500 nM.
